Laboratory results from patent US8263065B2, “Tumor suppression using human placental perfusate and human placenta-derived intermediate natural killer cells” (Anthrogenesis Corporation, priority 2007, dated 2012).

Legend:
[1] = system: cultured PINK cells; assay: qRT-PCR gene expression in lenalidomide- or pomalidomide-treated cultured PINK cells; type: cell-based, human; settings: treated vs untreated cultured PINK cells
Description: RNA isolation and purification.
Quantitative real-time (qRT-PCR) analysis.

[2] = cited from earlier work

| Structure (SMILES) | stability at higher relative humidities [2] | other results |
| --- | --- | --- |
| Nc1cccc2c1C(=O)N(C1CCC(=O)NC1=O)C2=O (racemic) [pomalidomide, 4-(Amino)-2-(2,6-dioxo(3-piperidyl))-isoindoline-1,3-dione] | – | Fold change of gene expression, LTA [1]: 2.68 fold |
| Nc1cccc2c1CN(C1CCC(=O)NC1=O)C2=O (stereo not shown) [Form B, 3-(4-amino-1-oxo-1,3 dihydro-isoindol-2-yl)-piperidene-2,6-dione] | – | stability in aqueous solvent systems ([2]; aqueous solvent systems): converts to Form E in aqueous solvent systems |
| Nc1cccc2c1CN(C1CCC(=O)NC1=O)C2=O (stereo not shown) [Form C, 3-(4-amino-1-oxo-1,3 dihydro-isoindol-2-yl)-piperidene-2,6-dione] | can convert to Form B | – |
| Nc1cccc2c1CN(C1CCC(=O)NC1=O)C2=O (stereo not shown) [Form D, 3-(4-amino-1-oxo-1,3 dihydro-isoindol-2-yl)-piperidene-2,6-dione] | will typically convert to Form B | – |
